From ChEMBL document CHEMBL3507680, “University of Dundee, Gates Library screen for HepG2 cell viability”

Assay: Human HepG2 cell viability assay in 384 well format
Assay type: toxicity, cell-based
Parameters: dose 125 nL, time 70.5 hour; cytotoxicity at 70.5 h: concentration not given beside the values
Conditions: HepG2 cells, read-out: Inhibition

Compound	cytotoxicity at 70.5 h
CC(C)N1CCC(N2CCN(C3CCCCC3)CC2CCO)CC1 (stereo not given)	-10.5%
O=C(CC1CC1)N1CC[C@H]2OCC[C@@]2(COc2ncccc2F)C1	-21.5%
COc1ccc(CN2CCCn3cnc(COC(C)C)c3C2)cc1	23.2%
CC(C)c1nc(O)c2nnn(C[C@H]3CCCN(Cc4ccsc4)C3)c2n1	-1.06%
O=C(Cc1csc(-c2ccoc2)n1)NCCCN1CCCCC1	-5.46%
COc1ccc(-c2nccn2C[C@@H]2CCCN3CCCC[C@H]23)cc1	1.3%
CN(C)c1ccc(C2CC(=O)Nc3c2cnn3Cc2ccco2)cc1 (stereo not given)	-7.08%
N#Cc1ccc(F)cc1Cn1cnc(C2CCC2)cc1=O	-9.04%
COCC[C@]1(O)CCN(c2ncc(Cl)cc2F)C[C@H]1C	-12.3%
CCCc1noc(C2CC(=O)N(CCN(C)C)C2)n1 (stereo not given)	-18.6%
CC(C)c1ccc(OCCC(=O)N(C)C)cc1	12.7%
Cc1cc(=O)[nH]c(=O)n1-c1ccccc1Br	-2.81%
O=C(c1cc2c(s1)CCOC2)N1CCCC1Cn1cccn1 (stereo not given)	-8.49%
CS(=O)(=O)N1CCC(c2nccn2Cc2ccccn2)CC1	-5.19%
CN(Cc1ccco1)C(=O)CN1CCCCC1Cn1cccn1 (stereo not given)	-12.4%
OC(COCc1cccs1)Cn1cc(Cl)cn1 (stereo not given)	-1.21%
Cc1cc(C[C@@H]2CCC[C@H]2NCc2ccccc2C)on1	-1.32%
O=C(c1nc(N2CCCC2)ncc1Cl)N1CCN(Cc2ccsc2)CC1	29%
Cc1ncc(CNC(=O)CCc2ccccc2F)c(C2CCCN2C)n1 (stereo not given)	-0.236%
c1csc(-c2nc(CN3CCCC3Cn3cncn3)co2)c1 (stereo not given)	-10.5%
Cc1c(C(=O)NS(=O)(=O)c2ccc(F)cc2)cnn1CC(C)C	20.5%
O=C(O)[C@@H]1CN(C(=O)c2ccc(F)c(F)c2)C[C@H]1c1cccc(F)c1	-11.2%
Cn1nc(CNC(=O)c2ccc(Cl)cc2)c2c1CCOC2	3.98%

Compound	cytotoxicity at 70.5 h
CNC(=O)[C@@H](c1ccccc1F)N1CCC[C@H]1C(=O)NC1CCCC1	-5.2%
CC(NC(N)=O)C(=O)NCc1ccnc(Oc2ccc(F)cc2)c1 (stereo not given)	-0.577%
CC(C)(C)c1noc(OCC(=O)NCC(F)(F)F)n1	-0.303%
CCOCC(O)CN1CCN(C(=O)Cc2ccccc2Cl)CC1 (stereo not given)	-0.667%
COCCN(C)C(=O)c1nc2c(s1)CCCN2S(C)(=O)=O	3.66%
Cc1cc(F)ccc1CCNC(=O)NCC(C)N1CCOCC1 (stereo not given)	3.68%
C/C=C(/C)C(=O)NS(=O)(=O)c1ccc(C(F)(F)F)cc1	0.976%
Cc1cc(C)cc(CN2C[C@@H]3OCCN(CC(=O)N(C)C)[C@@H]3C2)c1	-0.77%
O=C1CC[C@H]2[C@H](CCN2C(=O)C2CCOCC2)N1Cc1ccncc1	-15.6%
O=C(Cn1ncc2c(c1=O)CCCC2)Nc1cccc2[nH]ccc12	6.81%
CCc1ccc(C2COCCN2C(=O)Nc2cc(C)on2)o1 (stereo not given)	-3.5%
O=C(c1cnc(Nc2ccccc2)nc1)N1CCCC2(CCNC2)C1 (stereo not given)	-8.38%
CN(CC(=O)Nc1nncs1)CC1CCCN1c1cccnn1 (stereo not given)	4.97%
CCc1noc(C)c1C(=O)N1CCCC1Cn1nc(C)cc1C (stereo not given)	-3.58%
Cc1ccc(S(=O)(=O)N2CCc3ccc(F)cc32)cc1C(=O)O	-6.54%
Cc1noc(C)c1-c1cncc(CC2CCN(C(=O)c3cc[nH]n3)C2)n1 (stereo not given)	-4.86%
NC(=O)c1ccc(CN2CCC(N3CCCC3)CC2)cc1	-2.01%
Cc1cc(C(O)CCNC(=O)c2ccc(Cl)s2)c(C)o1 (stereo not given)	-8.23%
CCN1CCN(C2CCN(Cc3nc(CCOC)no3)CC2)C1=O	-3.79%
FC(F)(F)COc1cccc(-c2nc3c([nH]2)CCNC3)c1	-4.72%
Cc1nn(C)c(C)c1CC(C)NC(=O)NCc1ccn(C(C)C)n1 (stereo not given)	-5.76%
COc1cc(CCC(C)O)c(OC)c2c1OCO2 (stereo not given)	-4.78%
